According to patent US10150770B2, “Crystal form of bisulfate of JAK inhibitor and preparation method therefor” (Jiangsu Hengrui Medicine Co., Ltd., priority 2014, dated 2018):

Assay: Stability test of solid forms spread flat in the air (lighting, heating, high humidity), purity detected by HPLC
Type: physicochemical
Details: for purity as detected by HPLC, 40° C.: heating 40° C.; for purity as detected by HPLC, 60° C.: heating 60° C.; for purity as detected by HPLC, RH 75%: high humidity RH 75%; for purity as detected by HPLC, RH 90%: high humidity RH 90%; for purity as detected by HPLC, Lighting: lighting 4500 Lux
Protocol: The amorphous sample prepared in Example 1 and crystal form I prepared in Example 3 were spread flat in the air to test their stability under the conditions of lighting (4500 Lux), heating (40° C., 60° C.), and high humidity (RH 75%, RH 90%).

Compound	purity as detected by HPLC, 40° C. (day 0)	purity as detected by HPLC, 40° C. (day 5)	purity as detected by HPLC, 40° C. (day 10)	purity as detected by HPLC, 60° C. (day 0)	purity as detected by HPLC, 60° C. (day 5)	purity as detected by HPLC, 60° C. (day 10)	effect of high humidity on stability	purity as detected by HPLC, RH 75% (day 0)	purity as detected by HPLC, RH 75% (day 5)	purity as detected by HPLC, RH 75% (day 10)	purity as detected by HPLC, RH 90% (day 0)	purity as detected by HPLC, RH 90% (day 5)	purity as detected by HPLC, RH 90% (day 10)	purity as detected by HPLC, Lighting (day 0)	purity as detected by HPLC, Lighting (day 5)	purity as detected by HPLC, Lighting (day 10)	stability under the conditions of lighting and high temperature (lighting and high temperature, compared with the amorphous sample)
COc1nsc(NC(=O)N2C[C@H]3C[C@H](N(C)c4ncnc5[nH]ccc45)C[C@H]3C2)n1.O=S(=O)(O)O [Amorphous Form, (3aR,5s,6aS)—N-(3-methoxyl-1,2,4-thiadiazole-5-yl)-5-(methyl(7H-pyrrolo[2,3-d]pyrimidine-4-yl)amino)hexahydrocyclopenta[c]pyrrole-2(1H)-formamide bisulfate]	98.33%	97.65%	96.61%	98.33%	94.53%	92.12%	does not have much effect	98.33%	98.32%	98.16%	98.33%	99.14%	99.12%	98.33%	98.04%	97.51%	
COc1nsc(NC(=O)N2C[C@H]3C[C@H](N(C)c4ncnc5[nH]ccc45)C[C@H]3C2)n1.O=S(=O)(O)O [Crystal form I, (3aR,5s,6aS)—N-(3-methoxyl-1,2,4-thiadiazole-5-yl)-5-(methyl(7H-pyrrolo[2,3-d]pyrimidine-4-yl)amino)hexahydrocyclopenta[c]pyrrole-2(1H)-formamide bisulfate]	99.45%	99.42%	99.42%	99.45%	99.36%	99.35%	does not have much effect	99.45%	99.42%	99.40%	99.45%	99.42%	99.39%	99.45%	99.40%	99.39%	significantly better than that of the amorphous sample
